From publication PMC4048319, “Design and Synthesis of High Affinity Inhibitors of Plasmodium falciparum and Plasmodium vivax N-Myristoyltransferases Directed by Ligand Efficiency Dependent Lipophilicity (LELP)” (Journal of Medicinal Chemistry, 2014)

What was measured:
[1] = target: T1, PfNMT (Plasmodium falciparum, UniProt Q9U419); test: NMT enzyme inhibition, CPM fluorescence assay (PfNMT); assay type: biochemical
T1 sequence (Q9U419 1-410): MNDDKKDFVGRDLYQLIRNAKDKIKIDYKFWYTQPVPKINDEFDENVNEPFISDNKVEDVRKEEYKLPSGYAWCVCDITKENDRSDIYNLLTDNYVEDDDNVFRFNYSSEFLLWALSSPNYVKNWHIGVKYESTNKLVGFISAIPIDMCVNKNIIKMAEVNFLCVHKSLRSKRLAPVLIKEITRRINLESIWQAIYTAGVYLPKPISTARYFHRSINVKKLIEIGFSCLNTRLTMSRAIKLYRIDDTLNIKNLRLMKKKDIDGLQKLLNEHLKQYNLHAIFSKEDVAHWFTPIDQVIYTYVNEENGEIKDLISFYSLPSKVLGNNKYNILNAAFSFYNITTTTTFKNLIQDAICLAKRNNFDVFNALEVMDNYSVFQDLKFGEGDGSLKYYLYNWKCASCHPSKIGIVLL
Description: (§1) All IC50 determinations were carried out using a 7-diethylamino-3-(4′-maleimidylphenyl)-4-methylcoumarin (CPM) fluorescence assay, as described previously for HsNMT1,[45] PvNMT,[46] and PfNMT.[21]
(§2) IC50 values are the mean value of two or more determinations, and standard deviation is within 20% of the IC50 unless otherwise specified. Data were elaborated using Microsoft Office Excel 2010, and IC50 values were determined using GraFit 7.0 (Erithacus Software Ltd., U.K.) by nonlinear regression fitting, which were then quoted as Ki as defined below.
(§3) The Michaelis constant (Km) was 3.64 μM and the substrate concentration was 4.00 μM, resulting in a Ki of 0.008 μM. Km values were calculated as described previously.[45]

[2] = target: T2, PvNMT (Plasmodium vivax, UniProt A5K1A2); test: NMT enzyme inhibition, CPM fluorescence assay (PvNMT); assay type: biochemical
T2 sequence (A5K1A2 1-410): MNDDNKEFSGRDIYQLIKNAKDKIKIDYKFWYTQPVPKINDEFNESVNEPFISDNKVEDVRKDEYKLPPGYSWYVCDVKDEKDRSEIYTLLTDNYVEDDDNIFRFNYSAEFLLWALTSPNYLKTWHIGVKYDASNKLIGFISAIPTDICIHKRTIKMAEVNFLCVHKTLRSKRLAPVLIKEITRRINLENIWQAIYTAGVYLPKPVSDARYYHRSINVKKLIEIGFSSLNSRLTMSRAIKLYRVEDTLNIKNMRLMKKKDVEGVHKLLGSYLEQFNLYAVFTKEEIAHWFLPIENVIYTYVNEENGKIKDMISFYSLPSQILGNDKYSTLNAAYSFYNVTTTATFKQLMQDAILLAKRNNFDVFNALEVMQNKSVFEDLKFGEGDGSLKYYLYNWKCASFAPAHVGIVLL
Description: as §1, §2, §3

[3] = system: Plasmodium falciparum 3D7; test: Plasmodium falciparum Sybr Green viability assay (3D7); assay type: cell-based; conditions: blood stage, Sybr Green fluorometric assay, 96 h, read-out: Pf 3D7 EC50
Description: Synchronous Plasmodium falciparum 3D7 late stage trophozoites at 33–36 h were used. […] Red blood cells used for the assay were centrifuged to remove the buffy coat and washed twice in Roswell Park Memorial Institute (RPMI) medium 1640 so that no white blood cells were present. The culture medium contained RPMI 1640 with 5 g/L Albumax, 0.025 g/L gentamycin, and 0.292 g/L L-glutamine. Sterile 96-well black tissue culture plates (Costar) were used routinely for every assay. […] Two sets of control were used in duplicate wells, one set with no added drugs (positive control) and one with uninfected red blood cells (negative control). […] After 48 h supernatants were taken from each well and replaced with fresh drug and incubated for a further 48 h in the same manner. At the end of the 96 h incubation, 25 μL of SYBR Green I dye (SYBR Green I nucleic acid gel stain 10000×, in DMSO from Invitrogen) in lysis buffer (1 μL dye to 1 mL of lysis buffer) was added to each well and stored overnight at −20 °C. […] Plates were warmed to room temperature, and fluorescence intensity was measured with a FLUOstar Omega microplate fluorescence reader (BMG Labtech). Values were expressed in relative fluorescence units. […] Fluorescence intensity unit was converted to percentage (%) of growth as follows: [drawing 2]

[4] = target: T1, PfNMT; test: LELP (cLogP/LE, PfNMT LE)

SMILES: COc1cccc(COC(=O)c2sc3ccccc3c2OC2CCNCC2)c1 [compound 1]
- Ki [1]: 832 nM
- Ki [2]: 84 nM
- EC50 [3]: 2000 nM
- LELP [4]: 13.5
